# Reference: patent US10238118B2 (priority 2011, dated 2019)
# System: Xylella fastidiosa (Xf)
# Format: cell-based
# Details: single metabolite from Cochliobolus sp. extract, identified by NMR and MS
smiles,measurement,value
C/C=C/c1cc2c(c(=O)o1)C(=O)[C@@H](O)[C@H](C)O2 [radicinin],anti-Xf inhibitory activity of the isolated metabolite,inhibitory activity
